Columns and labels:
TNF-alpha = TNF-alpha expression in UV-irradiated HaCaT cells (real time PCR); type: cell-based, human; conditions: 10 uM, 24 h after UV (254 nm, 15 J/m^2), normalized to GAPDH
Experimental: (§1) HaCaT cells—a human immortalized keratinocyte cell line—were exposed to 15 J/m^2 UVB (254 nm) irradiation. Twenty four hours after irradiation, the cells were harvested and RNA isolated to assess the expression of LXR-alpha, LXR-beta, ABCA1, TNF-alpha, IL-6, and IL-8 genes. HaCaT cells were cultured in DMEM supplemented with 10% (v/v) fetal bovine serum, penicillin (100 U/mL), streptomycin ([…]) and glutamine (2 mM). […] The expressions of ABCA1, TNF-alpha, IL-6, IL-8, LXR-alpha, and LXR-beta were normalized according to glyceraldehyde-3-phosphate dehydrogenase (GAPDH) expression. The results of three independent assays, carried out in duplicate for each condition, are reported.

IL-8 = IL-8 expression in UV-irradiated HaCaT cells (real time PCR); type: cell-based, human; conditions: 10 uM, 24 h after UV, normalized to GAPDH
Experimental: as §1

ABCA1 [1] = test: ABCA1 expression in HaCaT cells (real time PCR); type: cell-based, human; conditions: HaCaT; 10 uM; 24 h after UV irradiation
Experimental: as §1, with “HaCaT cells—a human immortalized keratinocyte cell line—were exposed to 15 J/m^2 UVB (254 nm) irradiation.” left out

LXR-alpha [2] = test: LXR-alpha expression in UV-irradiated HaCaT cells (real time PCR); type: cell-based, human; conditions: 10 uM, 24 h after UV, vs. DMSO (UV, 24 h) and GW3965 (UV, 24 h)
Experimental: as §1

SRBEP-1 = SRBEP-1 expression in HepG2 cells (real time PCR); type: cell-based, human; conditions: 1 uM, 3 uM and 10 uM, 6 h
Experimental: (§2) The cells were incubated for 6 h in the presence of either Compound I (10 uM), or Compound II (10 uM), or the commercial LXR agonist GW3965 (1 uM), or Vehicle [DMSO, 0.1% (v/v)]). To obtain RNA, at the end of the incubation the cells were collected by centrifugation at 1,000 rpm for 2 min, washed with phosphate buffered saline, and lysed in 300 ul TRIZOL (Invitrogen). RNA samples were suspended in ul of RNAse free water, and their concentration determined (NanoDrop spectrophotometer). The ratio of the absorbance at 260 and 280 nm was used to assess RNA purity of an RNA preparation, with a value of 1.8-2.0 indicating pure RNA. To obtain cDNA, 1 ug of total RNA was denatured by incubating for 5 min at 70° C., before the addition of a mixture containing 0.5 ug oligo-dT primers and 25 ng/ml of random primers (Invitrogen), 1.0 mM dNTPs (Invitrogen), and 200 U M-MLV reverse transcriptase (Promega); after this the mixture was retrotranscribed at 37° C. for 60 min, followed by an incubation at 95° C. for 5 min to inactivate the enzyme. For the real time PCR amplification (Stratagene Thermal Cycler), cDNA samples were diluted 1/5 to 1/10 depending on the target amplification product. Calibration curves were obtained by use of eight successive 1:2 sample dilutions. Amplifications were carried out in a 25 ul final volume (5 ul cDNA sample plus 20 ul of reaction mixture) in the presence of either 3, 4 or 5 mM MgCl2 (depending on the amplified sequence), 0.25 mM dNTPs (Invitrogen), 1.25 U Taq polymerase (Invitrogen), 1 μM of the specific primers according to the target amplification sequence, and 0.025 μl SYBR Green (Roche). Melting curves were used to assess the specificity of the amplification products. […]

ABCA1 [3] = test: ABCA1 expression in HepG2 cells (real time PCR); type: cell-based, human; conditions: 1 uM, 3 uM and 10 uM, 6 h
ABCG1 = ABCG1 expression in HepG2 cells (real time PCR); type: cell-based, human; conditions: 10 uM, 6 h
Experimental: as §2

LXR-alpha [4] = test: LXR-alpha expression in HepG2 cells (real time PCR); type: cell-based, human; conditions: 10 uM, 6 h
Experimental: The cells were incubated for 6 h in the presence of either Compound I (10 uM), or Compound II (10 uM), or the commercial LXR agonist GW3965 (1 uM), or Vehicle [DMSO, 0.1% (v/v)]). To obtain RNA, at the end of the incubation the cells were collected by centrifugation at 1,000 rpm for 2 min, washed with phosphate buffered saline, and lysed in 300 ul TRIZOL (Invitrogen). RNA samples were suspended in ul of RNAse free water, and their concentration determined (NanoDrop spectrophotometer). The ratio of the absorbance at 260 and 280 nm was used to assess RNA purity of an RNA preparation, with a value of 1.8-2.0 indicating pure RNA. To obtain cDNA, 1 ug of total RNA was denatured by incubating for 5 min at 70° C., before the addition of a mixture containing 0.5 ug oligo-dT primers and 25 ng/ml of random primers (Invitrogen), 1.0 mM dNTPs (Invitrogen), and 200 U M-MLV reverse transcriptase (Promega); after this the mixture was retrotranscribed at 37° C. for 60 min, followed by an incubation at 95° C. for 5 min to inactivate the enzyme. For the real time PCR amplification (Stratagene Thermal Cycler), cDNA samples were diluted 1/5 to 1/10 depending on the target amplification product. Calibration curves were obtained by use of eight successive 1:2 sample dilutions. […]

granuloma formation = test: Granuloma formation in a mouse model of subchronic inflammation; type: in vivo; conditions: mice; 10 mg/kg body weight; previously showed, data not shown
LXR-alpha [5] = biological target: T1, LXR-alpha (Homo sapiens, UniProt Q13133); test: LXR-alpha/RXR LRE-luciferase reporter in transfected BHK cells; type: cell-based; design: expressed in transfected cells; host or cells: BHK (baby hamster kidney cells), transient transfection as for HEK293T; conditions: for stimulation of LXR-alpha-driven gene transcription [(LXRE)-luciferase activity] / effect on LXR-alpha-driven expression of luciferase: 1 uM; for stimulation of LXR-alpha-driven gene transcription [(LXRE)-luciferase activity]: 3 uM and 10 uM; for effect on LXR-alpha-driven expression of luciferase / LXR-alpha-driven luciferase expression, increase compared with vehicle-treated cells: 18 h
T1 sequence (Q13133 1-447): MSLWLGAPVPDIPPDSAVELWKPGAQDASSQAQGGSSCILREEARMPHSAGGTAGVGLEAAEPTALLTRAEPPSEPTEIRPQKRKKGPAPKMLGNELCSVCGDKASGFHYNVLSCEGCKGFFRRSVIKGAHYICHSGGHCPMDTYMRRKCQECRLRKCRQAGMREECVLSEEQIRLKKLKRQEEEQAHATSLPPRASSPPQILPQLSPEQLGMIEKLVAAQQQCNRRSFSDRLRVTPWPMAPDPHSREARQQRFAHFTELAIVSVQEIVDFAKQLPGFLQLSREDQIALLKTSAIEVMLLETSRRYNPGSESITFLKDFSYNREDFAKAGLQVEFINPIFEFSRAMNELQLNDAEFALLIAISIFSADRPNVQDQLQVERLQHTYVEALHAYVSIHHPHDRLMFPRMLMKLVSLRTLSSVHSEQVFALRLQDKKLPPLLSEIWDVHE
T1 sequence (P19793 1-462 partner): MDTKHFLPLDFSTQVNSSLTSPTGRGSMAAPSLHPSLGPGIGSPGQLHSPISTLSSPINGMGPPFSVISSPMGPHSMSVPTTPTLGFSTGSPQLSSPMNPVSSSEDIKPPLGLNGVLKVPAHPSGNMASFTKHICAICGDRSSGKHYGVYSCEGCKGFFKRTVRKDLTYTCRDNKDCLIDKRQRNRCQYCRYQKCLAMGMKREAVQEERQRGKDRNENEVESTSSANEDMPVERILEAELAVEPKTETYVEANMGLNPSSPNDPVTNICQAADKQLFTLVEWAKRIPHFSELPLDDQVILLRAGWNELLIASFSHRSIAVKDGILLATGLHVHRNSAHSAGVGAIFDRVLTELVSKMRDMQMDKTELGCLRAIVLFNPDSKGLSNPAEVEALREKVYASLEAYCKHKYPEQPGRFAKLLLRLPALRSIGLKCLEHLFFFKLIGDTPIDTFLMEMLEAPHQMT
Experimental: B. Baby hamster kidney cells (5×10^5 cells/well) were cultured and transiently transfected as described above (Methods A.) for HEK293T cells. After transfection, the culture medium was replaced by serum-free DMEM, and the cells were incubated for 18 h with either Compound I or Compound II at 1×10^−6 M, 3×10^−6 M or 10^−5 M each, or vehicle [DMSO, 0.1% (v/v) final concentration], or GW3965 at a concentration of 10^−6 M. LXR-alpha activation was determined as described in A.

| Structure (SMILES) | TNF-alpha expression versus DMSO-treated cells (TNF-alpha) | IL-8 expression versus DMSO-treated cells (IL-8) | ABCA1 expression versus DMSO-treated cells (ABCA1 [1]) | LXR-alpha expression (LXR-alpha [2]) | induction of SRBEP-1 expression (SRBEP-1) | induction of ABCA1 expression (ABCA1 [3]) | induction of ABCG1 expression (ABCG1) | induction of LXR-alpha expression compared with DMSO treated HepG2 (LXR-alpha [4]) | granuloma formation (granuloma formation) | stimulation of LXR-alpha-driven gene transcription [(LXRE)-luciferase activity] (LXR-alpha [5]) | effect on LXR-alpha-driven expression of luciferase (LXR-alpha [5]) | LXR-alpha-driven luciferase expression, increase compared with vehicle-treated cells (LXR-alpha [5]; 3 uM) | LXR-alpha-driven luciferase expression, increase compared with vehicle-treated cells (LXR-alpha [5]; 10 uM) |
| --- | --- | --- | --- | --- | --- | --- | --- | --- | --- | --- | --- | --- | --- |
| CC[C@@H](C(C)C)[C@H](O)[C@@H](O)[C@@H](C)[C@H]1CC[C@H]2[C@@H]3CCC4=CC(=O)CC[C@]4(C)[C@H]3CC[C@]12C [Compound I, (22S,23S)-22,23-dihydroxystigmast-4-en-3-one] | significantly lower | significantly lower | marginally induced | stimulated LXR-alpha expression even further | did not induce | did not induce | 8 times | 1.5 times | reduces granuloma formation | within the same concentration range as GW3965 | no effect | 3 fold | – |
| CC[C@@H](C(C)C)[C@H](O)[C@@H](O)[C@@H](C)[C@H]1CC[C@H]2[C@@H]3CCC4=CC(=O)C=C[C@]4(C)[C@H]3CC[C@]12C [Compound II, (22S,23S)-22,23-dihydroxystigmasta-1,4-dien-3-one] | significantly lower | significantly lower | marginally induced | stimulated LXR-alpha expression even further | did not induce | did not induce | 3 times | – | – | within the same concentration range as GW3965 | no effect | 3 fold | 3 fold |
